# Laboratory results from patent US20030092757A1, “Favorable modulation of health-related quality of life and health-related quality-adjusted time-to-progression of disease in patients with prostate cancer” (priority 2001, published 2003).
# Test system: patients having hormone refractory prostate cancer (HRPCa)
# Experiment: Health-related quality-adjusted time-to-progression (QATTP) of disease, Kaplan-Meier product limit analysis, randomized placebo-controlled study
# Assay type: in vivo, human
# Method: The health-related QATTP of disease model for this invention expresses progression-free time as an equally preferable amount of time spent in full health. This is achieved by using patient-reported health-related QoL, as measured for the duration of observation or progression-free interval, to weight progression-free time. […] Patients received treatment with 10 mg (N=89) or 2.5 mg (N=95) of atrasentan or placebo (N=104) until experiencing a clinical event indicative of disease progression such as palliative opiate treatment of new bone or visceral pain, palliative radiation treatment of new bone pain, or new tumor growth symptoms requiring intervention or treatment with chemotherapy. Patient-reported health-related QoL data were collected with the EORTC QLQ-30 and the FACT-G and FACT-P, both of which were administered at baseline, at six week intervals and at each patient's final visit. The results from the 10 mg and 2.5 mg treatment groups are reported relative to the placebo group. A patient's transformed domain score and total score from both the EORTC QLQ-30 and FACT were used to weight the time-to-progression outcome data. Transformed domain scores ranged between 0 and 1, so the reported health-related QATTP of disease outcome was never larger than the actual time-to-progression. Each patient's health-related QATTP of disease was computed as the sum of the health-related QoL weights multiplied by the duration for which that patient experienced that health-related QoL. If a patient experienced a clinical event between two health-related QoL assessments, the set of health-related QoL domain scores immediately prior to the event were carried forward to the time of the clinical event. The mean and median health-related QATTP of disease outcomes were then estimated using Kaplan-Meier product limit methodology (Journal of the American Statistical Association, vol. 53, 1958, pp 457-481). The area under a Kaplan-Meier survival curve conveys an estimated mean health-related QATTP of disease. This analysis was applied to both intent-to-treat and per protocol population data. All health-related QATTP of disease comparisons between atrasentan and placebo treatment groups were based on a log-rank test with statistical significance at an α of 0.05. Results of the Kaplan-Meier product limit survival method analysis are reported in TABLE 2 (Intent to Treat) and TABLE 3 (Per Protocol Population). Mean and median health-related QATTP of disease are shown by treatment group. Log-rank tests comparing the differences between treatment groups are also reported.
# [1] = EORTC Appetite Loss, 2.5 mg, intent to treat
# [2] = EORTC Appetite Loss, 2.5 mg, per protocol
# [3] = EORTC Appetite Loss, 10 mg, intent to treat
# [4] = EORTC Appetite Loss, 10 mg, per protocol
# [5] = EORTC Cognitive Functioning, 2.5 mg, intent to treat
# [6] = EORTC Cognitive Functioning, 2.5 mg, per protocol
# [7] = EORTC Cognitive Functioning, 10 mg, intent to treat
# [8] = EORTC Cognitive Functioning, 10 mg, per protocol
# [9] = EORTC Constipation, 2.5 mg, intent to treat
# [10] = EORTC Constipation, 2.5 mg, per protocol
# [11] = EORTC Constipation, 10 mg, intent to treat
# [12] = EORTC Constipation, 10 mg, per protocol
# [13] = EORTC Diarrhea, 2.5 mg, intent to treat
# [14] = EORTC Diarrhea, 2.5 mg, per protocol
# [15] = EORTC Diarrhea, 10 mg, intent to treat
# [16] = EORTC Diarrhea, 10 mg, per protocol
# [17] = EORTC Dyspnea, 2.5 mg, intent to treat
# [18] = EORTC Dyspnea, 2.5 mg, per protocol
# [19] = EORTC Dyspnea, 10 mg, intent to treat
# [20] = EORTC Dyspnea, 10 mg, per protocol
# [21] = EORTC Emotional Functioning, 2.5 mg, intent to treat
# [22] = EORTC Emotional Functioning, 2.5 mg, per protocol
# [23] = EORTC Emotional Functioning, 10 mg, intent to treat
# [24] = EORTC Emotional Functioning, 10 mg, per protocol
# [25] = EORTC Fatigue, 2.5 mg, intent to treat
# [26] = EORTC Fatigue, 2.5 mg, per protocol
# [27] = EORTC Fatigue, 10 mg, intent to treat
# [28] = EORTC Fatigue, 10 mg, per protocol
# [29] = EORTC Global Score, 2.5 mg, intent to treat
# [30] = EORTC Global Score, 2.5 mg, per protocol
# [31] = EORTC Global Score, 10 mg, intent to treat
# [32] = EORTC Global Score, 10 mg, per protocol
# [33] = EORTC Nausea & Vomiting, 2.5 mg, intent to treat
# [34] = EORTC Nausea & Vomiting, 2.5 mg, per protocol
# [35] = EORTC Nausea & Vomiting, 10 mg, intent to treat
# [36] = EORTC Nausea & Vomiting, 10 mg, per protocol
# [37] = EORTC Pain, 2.5 mg, intent to treat
# [38] = EORTC Pain, 2.5 mg, per protocol
# [39] = EORTC Pain, 10 mg, intent to treat
# [40] = EORTC Pain, 10 mg, per protocol
# [41] = EORTC Physical Functioning, 2.5 mg, intent to treat
structure (smiles),measurement,setting,value
"CCCCN(CCCC)C(=O)CN1C[C@H](c2ccc3c(c2)OCO3)[C@@H](C(=O)O)[C@@H]1c1ccc(OC)cc1 [atrasentan, (2R,3R,4S)-2-(4-methoxyphenyl)-4-(1,3-benzodioxol-5-yl)-1-(((N,N-dibutylamino)carbonyl)methyl)pyrrolidine-3-carboxylic acid]",log rank tests of mean health-related QATTP of disease,"2.5 mg, all health-related QoL domains except dyspnea and functional well-being",statistically significant
same,mean health-related QATTP of disease,"2.5 mg, data in TABLE 2 (so in the source)",longer
same,difference in health-related QATTP between the atrasentan treatment groups,"10 mg vs 2.5 mg, any health-related QoL domain",no statistical differences
same,mean health-related QATTP's of disease,"10 mg, data in TABLE 2 (so in the source), all health-related QoL domains except dyspnea, global score, emotional well-being, social well-being, p<0.05",significantly longer
same,"mean health-related QATTP of disease, trend","10 mg, dyspnea, global score, emotional well-being, social well-being domains, p<0.10",trend favored
same,QATTP of Disease Mean,[1],186 days
same,QATTP of Disease Median,[1],151 days
same,QATTP of Disease Mean,[2],196 days
same,QATTP of Disease Median,[2],162 days
same,QATTP of Disease Mean,[3],175 days
same,QATTP of Disease Median,[3],146 days
same,QATTP of Disease Mean,[4],179 days
same,QATTP of Disease Median,[4],146 days
same,QATTP of Disease Mean,[5],180 days
same,QATTP of Disease Median,[5],151 days
same,QATTP of Disease Mean,[6],190 days
same,QATTP of Disease Median,[6],156 days
same,QATTP of Disease Mean,[7],163 days
same,QATTP of Disease Median,[7],138 days
same,QATTP of Disease Mean,[8],159 days
same,QATTP of Disease Median,[8],144 days
same,QATTP of Disease Mean,[9],180 days
same,QATTP of Disease Median,[9],142 days
same,QATTP of Disease Mean,[10],190 days
same,QATTP of Disease Median,[10],151 days
same,QATTP of Disease Mean,[11],189 days
same,QATTP of Disease Median,[11],132 days
same,QATTP of Disease Mean,[12],198 days
same,QATTP of Disease Median,[12],141 days
same,QATTP of Disease Mean,[13],198 days
same,QATTP of Disease Median,[13],178 days
same,QATTP of Disease Mean,[14],209 days
same,QATTP of Disease Median,[14],184 days
same,QATTP of Disease Mean,[15],185 days
same,QATTP of Disease Median,[15],176 days
same,QATTP of Disease Mean,[16],188 days
same,QATTP of Disease Median,[16],184 days
same,QATTP of Disease Mean,[17],173 days
same,QATTP of Disease Median,[17],141 days
same,QATTP of Disease Mean,[18],180 days
same,QATTP of Disease Median,[18],142 days
same,QATTP of Disease Mean,[19],177 days
same,QATTP of Disease Median,[19],123 days
same,QATTP of Disease Mean,[20],182 days
same,QATTP of Disease Median,[20],132 days
same,QATTP of Disease Mean,[21],177 days
same,QATTP of Disease Median,[21],133 days
same,QATTP of Disease Mean,[22],186 days
same,QATTP of Disease Median,[22],143 days
same,QATTP of Disease Mean,[23],167 days
same,QATTP of Disease Median,[23],125 days
same,QATTP of Disease Mean,[24],169 days
same,QATTP of Disease Median,[24],134 days
same,QATTP of Disease Mean,[25],165 days
same,QATTP of Disease Median,[25],109 days
same,QATTP of Disease Mean,[26],174 days
same,QATTP of Disease Median,[26],127 days
same,QATTP of Disease Mean,[27],153 days
same,QATTP of Disease Median,[27],104 days
same,QATTP of Disease Mean,[28],158 days
same,QATTP of Disease Median,[28],111 days
same,QATTP of Disease Mean,[29],159 days
same,QATTP of Disease Median,[29],104 days
same,QATTP of Disease Mean,[30],167 days
same,QATTP of Disease Median,[30],124 days
same,QATTP of Disease Mean,[31],141 days
same,QATTP of Disease Median,[31],103 days
same,QATTP of Disease Mean,[32],145 days
same,QATTP of Disease Median,[32],106 days
same,QATTP of Disease Mean,[33],195 days
same,QATTP of Disease Median,[33],162 days
same,QATTP of Disease Mean,[34],206 days
same,QATTP of Disease Median,[34],178 days
same,QATTP of Disease Mean,[35],201 days
same,QATTP of Disease Median,[35],156 days
same,QATTP of Disease Mean,[36],207 days
same,QATTP of Disease Median,[36],168 days
same,QATTP of Disease Mean,[37],179 days
same,QATTP of Disease Median,[37],133 days
same,QATTP of Disease Mean,[38],188 days
same,QATTP of Disease Median,[38],142 days
same,QATTP of Disease Mean,[39],172 days
same,QATTP of Disease Median,[39],127 days
same,QATTP of Disease Mean,[40],178 days
same,QATTP of Disease Median,[40],137 days
same,QATTP of Disease Mean,[41],172 days
same,QATTP of Disease Median,[41],118 days
same,QATTP of Disease Mean,"EORTC Physical Functioning, 2.5 mg, per protocol",181 days
